Data taken from ChEMBL document CHEMBL1201862, “PubChem BioAssay data set” (2004).
The source made the active and inactive calls.

Tests used:
[1] = tested on: Streptococcus sp. 'group A'; experiment: Streptococcus pyogenes SK(-)GAS viability under kanamycin – luminescence, BacTiterGlo, confirmation, counter-screen for streptokinase expression inhibitor project, dose response (AID 1900); assay type: functional, organism-based
Streptokinase A = target: T1, Streptokinase A (Streptococcus pyogenes serotype M1, UniProt P10520); experiment: viability-normalized secreted streptokinase activity reduction – plasminogen activation absorbance, OD405, dose response (AID 1914); assay type: functional, Streptococcus pyogenes M1 GAS;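 also: secreted streptokinase activity via plasminogen activation per viability signal from cell pellet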
T1 sequence (P10520 whole entry): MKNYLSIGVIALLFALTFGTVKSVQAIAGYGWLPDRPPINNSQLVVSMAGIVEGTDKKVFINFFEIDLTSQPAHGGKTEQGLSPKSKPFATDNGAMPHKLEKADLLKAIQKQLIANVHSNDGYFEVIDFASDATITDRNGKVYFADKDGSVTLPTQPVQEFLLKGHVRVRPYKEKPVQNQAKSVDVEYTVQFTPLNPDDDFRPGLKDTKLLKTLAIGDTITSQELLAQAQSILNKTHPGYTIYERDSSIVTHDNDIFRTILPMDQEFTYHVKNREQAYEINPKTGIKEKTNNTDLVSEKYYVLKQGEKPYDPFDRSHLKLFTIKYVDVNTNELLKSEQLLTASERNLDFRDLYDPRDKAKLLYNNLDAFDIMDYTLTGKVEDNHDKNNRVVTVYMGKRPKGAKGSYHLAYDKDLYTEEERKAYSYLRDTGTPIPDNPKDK

[2] = target: T2, Calpain-2 catalytic subunit (Sus scrofa, UniProt P43367); experiment: m-calpain protease blockers, concentration series – biochemical, fluorogenic peptide substrate, dose response (AID 1420); assay type: functional
T2 sequence (P43367 whole entry): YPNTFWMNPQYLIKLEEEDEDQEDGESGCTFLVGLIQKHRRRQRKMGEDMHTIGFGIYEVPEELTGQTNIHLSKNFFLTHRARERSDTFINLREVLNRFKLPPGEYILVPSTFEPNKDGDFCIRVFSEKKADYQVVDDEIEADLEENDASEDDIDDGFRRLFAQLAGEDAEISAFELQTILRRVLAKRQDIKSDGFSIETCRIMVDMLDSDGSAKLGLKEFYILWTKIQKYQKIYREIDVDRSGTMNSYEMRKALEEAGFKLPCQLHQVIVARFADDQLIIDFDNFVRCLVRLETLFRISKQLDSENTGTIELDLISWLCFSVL

Streptococcus = experiment: GAS UMAA2166 growth inhibition – luminescence, BacTiterGlo, counter-screen for streptokinase expression inhibitor project, dose response (AID 1915); assay type: functional, organism-based;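 also: potency for reduction of bacterial viability or growth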
X-box-binding protein 1 = target: T3, X-box-binding protein 1 (Homo sapiens, UniProt P17861); assay type: functional, Cricetulus griseus;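 also: confirmatory dose-response counter-screen serving a CHOP assay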
T3 sequence (P17861 whole entry): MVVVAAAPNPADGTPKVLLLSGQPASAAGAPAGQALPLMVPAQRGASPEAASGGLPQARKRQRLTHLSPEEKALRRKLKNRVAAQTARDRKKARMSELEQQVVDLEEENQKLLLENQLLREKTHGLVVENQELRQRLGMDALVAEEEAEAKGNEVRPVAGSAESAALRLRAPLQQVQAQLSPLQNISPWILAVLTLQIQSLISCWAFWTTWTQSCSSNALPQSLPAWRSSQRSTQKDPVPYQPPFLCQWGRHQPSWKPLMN

[3] = target: Heat shock protein HSP 90-alpha (Homo sapiens, UniProt P07900); assay type: functional, organism-based
INS1 = experiment: INS-1E survival protection against cytokine death – cell-based, luminescence, retest, dose response (AID 449756); assay type: functional; details: Rattus norvegicus;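 also: cell death triggered by IL-1 beta plus TNF-alpha plus IFN-gamma mixture; protective hits raise ATP signal compared with cytokine alone wells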
[4] = target: Peroxisome proliferator-activated receptor gamma/Nuclear receptor coactivator 2 (Homo sapiens, UniProt P37231); assay type: functional;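 also: agonist potency for raising coactivator recruitment to the receptor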
[5] = target: Peroxisome proliferator-activated receptor gamma/Nuclear receptor coactivator 1 (Homo sapiens, UniProt P37231); assay type: functional;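 also: agonist potency as compounds enhance coactivator SRC-1 recruitment to PPARgamma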
[6] = Luminescence Cell-Based Dose Confirmation HTS to Identify Activators of 5'UTR Stem-Loop Driven Alpha-Synuclein mRNA Translation in H4 Neuroglioblastoma Cells. [Related pubchem assays: 1829 (Project Summary), 1814 (Primary HTS)]; assay type: functional
[7] = Luminescence Cell-Based Dose Response HTS to Identify Activators of Luciferase Translation or Activity in H4 […] Cells. [Related pubchem assays: 1829 (Project Summary), 1814 (Primary HTS)]; assay type: functional
[8] = target: Peroxisome proliferator-activated receptor gamma/Nuclear receptor coactivator 3 (Homo sapiens, UniProt P37231); assay type: functional;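 also: agonist potency for raising coactivator recruitment to the receptor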
H4 = experiment: Luminescence Cell-Based Dose Response HTS to Identify Activators of 5'UTR Stem-Loop Driven Prion Protein mRNA Translation in H4 Neuroglioblastoma Cells. [Related pubchem assays: 1829 (Project Summary), 1814 (Primary HTS)]; assay type: functional; details: Homo sapiens
[9] = target: T4, Voltage-gated N-type calcium channel alpha-1B subunit/Amyloid beta A4 precursor protein-binding family A member 1 (Homo sapiens, UniProt Q00975+Q02410); assay type: protein assay
[10] = target: T4, Voltage-gated N-type calcium channel alpha-1B subunit/Amyloid beta A4 precursor protein-binding family A member 1; assay type: protein assay; remark: listed apart in the source
[11] = target: Induced myeloid leukemia cell differentiation protein Mcl-1 (Homo sapiens, UniProt Q07820); assay type: functional
[12] = target: T5, Microphthalmia-associated transcription factor (Homo sapiens, UniProt O75030); experiment: reducers of TRPM1 reporter luminescence, concentration series – cell-based, SK-MEL-5, cherry-picked, set 3, MITF inhibitor project, dose response (AID 493073); assay type: functional;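 also: SK-MEL-5 melanoma cells with luciferase driven by the MITF target TRPM1 promoter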
T5 sequence (O75030 whole entry): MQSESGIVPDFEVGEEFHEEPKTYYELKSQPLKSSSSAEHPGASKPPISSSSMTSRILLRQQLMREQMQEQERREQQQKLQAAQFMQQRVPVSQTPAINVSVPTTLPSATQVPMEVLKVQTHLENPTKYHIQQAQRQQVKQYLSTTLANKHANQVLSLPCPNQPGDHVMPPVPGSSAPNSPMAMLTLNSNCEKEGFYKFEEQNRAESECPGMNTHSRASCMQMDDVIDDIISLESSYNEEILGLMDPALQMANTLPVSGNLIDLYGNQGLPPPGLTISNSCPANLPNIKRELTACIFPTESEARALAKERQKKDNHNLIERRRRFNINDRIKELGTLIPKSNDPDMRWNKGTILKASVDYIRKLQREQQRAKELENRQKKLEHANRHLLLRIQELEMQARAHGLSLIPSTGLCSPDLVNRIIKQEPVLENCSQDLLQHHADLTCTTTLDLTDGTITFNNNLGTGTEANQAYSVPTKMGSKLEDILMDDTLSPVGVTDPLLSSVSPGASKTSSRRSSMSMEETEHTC

[13] = reduction of Shn3 3'UTR-driven luciferase in osteoblasts – cell-based, Clone20 osteoblasts, firefly luciferase, cherry-picked, dose response (AID 624132); assay type: functional;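 also: firefly luciferase luminescence from reporter carrying the Shn3 3'UTR in osteoblasts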
[14] = loss of viability in HepG2 cells – cell-based, CellTiter-Glo, cherry-picked, cytotoxicity control for Shn3 inhibitor project, dose response (AID 624134); assay type: functional
[15] = non-specific 3'UTR reporter inhibition in Clone20-Shn3RL – cell-based, Renilla luciferase, cherry-picked, counter-screen for Shn3 inhibitor project, dose response (AID 624133); assay type: functional
Prothrombin = Prothrombin (Homo sapiens, UniProt P00734); experiment: Thrombin 1536 HTS Dose Response Confirmation. [Related pubchem assays: 1046 (Thrombin 1536 HTS; hits were confirmed in this assay)]; assay type: functional
[16] = target: T6, Corticotropin-releasing factor receptor 2/Corticotropin-releasing factor-binding protein (Homo sapiens, UniProt P24387+Q13324); experiment: activators of CRF receptor 2 with binding protein – uHTS hits, confirmation (AID 602473); assay type: functional; details: read-out: EC50_Mean
T6 sequence (Q13324 whole entry): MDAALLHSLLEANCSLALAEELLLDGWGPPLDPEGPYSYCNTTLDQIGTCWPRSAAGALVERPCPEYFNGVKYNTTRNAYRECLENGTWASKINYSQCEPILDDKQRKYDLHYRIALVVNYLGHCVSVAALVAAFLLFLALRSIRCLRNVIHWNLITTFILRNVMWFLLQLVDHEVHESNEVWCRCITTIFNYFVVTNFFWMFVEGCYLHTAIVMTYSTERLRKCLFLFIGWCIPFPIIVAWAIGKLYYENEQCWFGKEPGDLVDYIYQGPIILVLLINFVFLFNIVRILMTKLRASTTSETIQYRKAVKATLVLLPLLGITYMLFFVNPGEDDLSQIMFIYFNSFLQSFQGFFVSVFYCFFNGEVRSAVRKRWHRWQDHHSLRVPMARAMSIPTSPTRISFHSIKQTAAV
T6 sequence (P24387 whole entry): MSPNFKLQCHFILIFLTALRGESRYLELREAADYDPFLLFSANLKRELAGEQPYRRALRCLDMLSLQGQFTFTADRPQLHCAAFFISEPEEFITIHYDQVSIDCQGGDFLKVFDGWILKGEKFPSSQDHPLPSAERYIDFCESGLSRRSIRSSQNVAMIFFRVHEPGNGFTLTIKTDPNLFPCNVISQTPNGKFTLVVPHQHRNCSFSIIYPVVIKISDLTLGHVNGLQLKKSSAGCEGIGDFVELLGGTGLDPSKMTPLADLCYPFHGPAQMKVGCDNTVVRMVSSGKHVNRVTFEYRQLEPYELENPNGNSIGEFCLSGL

Chain of Peroxisome proliferator-activated receptor gamma/Nuclear receptor coactivator 3 (P37231 whole entry): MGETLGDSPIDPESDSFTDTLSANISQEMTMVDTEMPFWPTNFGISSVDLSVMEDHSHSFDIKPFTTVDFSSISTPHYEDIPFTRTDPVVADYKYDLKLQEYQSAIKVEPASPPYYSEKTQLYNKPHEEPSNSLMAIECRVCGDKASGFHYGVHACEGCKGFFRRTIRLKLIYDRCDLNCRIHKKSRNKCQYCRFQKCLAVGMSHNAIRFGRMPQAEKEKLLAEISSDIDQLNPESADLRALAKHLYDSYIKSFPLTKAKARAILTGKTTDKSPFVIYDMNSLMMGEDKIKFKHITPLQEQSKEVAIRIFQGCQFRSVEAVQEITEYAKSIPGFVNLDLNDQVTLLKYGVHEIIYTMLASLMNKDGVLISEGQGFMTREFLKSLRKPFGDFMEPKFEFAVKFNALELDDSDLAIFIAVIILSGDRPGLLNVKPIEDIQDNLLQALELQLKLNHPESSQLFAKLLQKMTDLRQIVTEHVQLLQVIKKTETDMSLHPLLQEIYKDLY
Chain of Peroxisome proliferator-activated receptor gamma/Nuclear receptor coactivator 3 (Q9Y6Q9 whole entry, further chain): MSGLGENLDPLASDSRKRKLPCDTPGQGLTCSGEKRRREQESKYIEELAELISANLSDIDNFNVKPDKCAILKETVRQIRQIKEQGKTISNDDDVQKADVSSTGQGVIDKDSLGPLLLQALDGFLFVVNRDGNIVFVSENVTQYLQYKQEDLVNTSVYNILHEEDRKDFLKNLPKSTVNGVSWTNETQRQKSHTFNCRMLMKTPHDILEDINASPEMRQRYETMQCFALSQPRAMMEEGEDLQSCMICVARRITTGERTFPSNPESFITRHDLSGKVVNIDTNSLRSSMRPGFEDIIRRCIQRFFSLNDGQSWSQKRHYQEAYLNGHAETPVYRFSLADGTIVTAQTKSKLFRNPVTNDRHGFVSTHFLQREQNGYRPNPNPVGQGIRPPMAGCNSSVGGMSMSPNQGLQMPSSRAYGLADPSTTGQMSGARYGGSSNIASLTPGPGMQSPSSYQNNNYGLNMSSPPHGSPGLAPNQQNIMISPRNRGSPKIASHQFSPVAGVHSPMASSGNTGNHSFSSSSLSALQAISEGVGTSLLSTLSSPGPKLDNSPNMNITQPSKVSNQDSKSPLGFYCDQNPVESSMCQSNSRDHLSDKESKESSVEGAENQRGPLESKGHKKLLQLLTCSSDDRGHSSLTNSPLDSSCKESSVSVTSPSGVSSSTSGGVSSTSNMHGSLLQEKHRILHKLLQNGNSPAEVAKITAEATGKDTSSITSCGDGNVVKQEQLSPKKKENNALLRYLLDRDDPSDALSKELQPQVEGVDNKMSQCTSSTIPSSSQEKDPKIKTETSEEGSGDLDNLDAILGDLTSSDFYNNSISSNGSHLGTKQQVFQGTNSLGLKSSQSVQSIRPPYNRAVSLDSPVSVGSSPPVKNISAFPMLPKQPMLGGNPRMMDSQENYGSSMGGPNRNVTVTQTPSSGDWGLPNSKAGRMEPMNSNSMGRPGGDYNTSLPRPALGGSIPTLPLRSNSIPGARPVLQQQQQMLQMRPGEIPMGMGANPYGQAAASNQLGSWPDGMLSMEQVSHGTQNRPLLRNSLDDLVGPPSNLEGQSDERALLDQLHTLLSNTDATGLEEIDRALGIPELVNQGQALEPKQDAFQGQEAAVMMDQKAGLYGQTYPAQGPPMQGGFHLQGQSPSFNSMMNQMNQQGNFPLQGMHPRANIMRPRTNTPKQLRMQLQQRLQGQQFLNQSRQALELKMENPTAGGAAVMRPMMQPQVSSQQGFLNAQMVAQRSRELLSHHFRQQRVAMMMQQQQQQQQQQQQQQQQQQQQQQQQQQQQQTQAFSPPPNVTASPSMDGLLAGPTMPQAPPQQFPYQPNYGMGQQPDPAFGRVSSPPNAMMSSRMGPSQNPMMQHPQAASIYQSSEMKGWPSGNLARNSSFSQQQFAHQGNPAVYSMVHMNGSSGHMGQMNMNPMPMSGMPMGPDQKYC
Chain of Peroxisome proliferator-activated receptor gamma/Nuclear receptor coactivator 2 (P37231 whole entry): as the sequence (P37231 whole entry) above
Chain of Peroxisome proliferator-activated receptor gamma/Nuclear receptor coactivator 2 (Q15596 whole entry, further chain): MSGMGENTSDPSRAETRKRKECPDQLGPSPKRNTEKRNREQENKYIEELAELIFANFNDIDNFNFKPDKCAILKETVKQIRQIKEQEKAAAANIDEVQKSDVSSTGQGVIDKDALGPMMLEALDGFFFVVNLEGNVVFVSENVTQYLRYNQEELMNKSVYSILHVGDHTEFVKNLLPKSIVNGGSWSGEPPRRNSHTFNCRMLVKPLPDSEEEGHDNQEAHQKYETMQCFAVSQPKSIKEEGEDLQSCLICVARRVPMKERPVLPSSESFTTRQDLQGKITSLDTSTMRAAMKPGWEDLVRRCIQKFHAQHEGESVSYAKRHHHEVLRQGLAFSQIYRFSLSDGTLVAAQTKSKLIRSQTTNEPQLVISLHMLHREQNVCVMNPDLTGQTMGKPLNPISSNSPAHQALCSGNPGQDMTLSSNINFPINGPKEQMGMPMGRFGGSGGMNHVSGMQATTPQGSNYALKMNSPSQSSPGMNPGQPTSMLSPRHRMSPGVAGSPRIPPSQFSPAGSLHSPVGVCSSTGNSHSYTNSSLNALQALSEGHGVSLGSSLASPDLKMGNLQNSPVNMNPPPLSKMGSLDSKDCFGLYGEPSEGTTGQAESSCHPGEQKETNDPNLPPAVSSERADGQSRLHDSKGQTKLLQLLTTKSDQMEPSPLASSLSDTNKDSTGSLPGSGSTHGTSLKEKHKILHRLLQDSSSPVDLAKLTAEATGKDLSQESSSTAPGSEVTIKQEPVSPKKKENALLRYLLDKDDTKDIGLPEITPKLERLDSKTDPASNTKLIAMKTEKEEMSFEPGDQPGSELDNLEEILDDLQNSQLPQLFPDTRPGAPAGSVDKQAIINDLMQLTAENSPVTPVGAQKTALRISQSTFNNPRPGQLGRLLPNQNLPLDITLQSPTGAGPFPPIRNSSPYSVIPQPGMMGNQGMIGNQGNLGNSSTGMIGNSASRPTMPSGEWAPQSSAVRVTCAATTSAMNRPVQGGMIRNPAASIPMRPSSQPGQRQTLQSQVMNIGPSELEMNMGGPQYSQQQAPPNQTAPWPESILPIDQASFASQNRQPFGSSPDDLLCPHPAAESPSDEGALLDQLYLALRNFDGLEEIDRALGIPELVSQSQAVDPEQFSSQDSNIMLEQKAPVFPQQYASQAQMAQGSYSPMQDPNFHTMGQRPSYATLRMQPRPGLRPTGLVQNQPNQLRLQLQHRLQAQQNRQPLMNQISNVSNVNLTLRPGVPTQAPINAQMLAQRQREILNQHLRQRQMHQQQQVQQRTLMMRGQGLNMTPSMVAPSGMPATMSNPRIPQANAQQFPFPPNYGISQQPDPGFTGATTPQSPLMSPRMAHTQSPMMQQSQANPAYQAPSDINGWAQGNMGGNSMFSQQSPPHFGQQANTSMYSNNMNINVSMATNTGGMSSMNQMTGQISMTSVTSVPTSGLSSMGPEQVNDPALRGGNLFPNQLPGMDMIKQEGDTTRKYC
Chain of Induced myeloid leukemia cell differentiation protein Mcl-1 (Q07820 whole entry): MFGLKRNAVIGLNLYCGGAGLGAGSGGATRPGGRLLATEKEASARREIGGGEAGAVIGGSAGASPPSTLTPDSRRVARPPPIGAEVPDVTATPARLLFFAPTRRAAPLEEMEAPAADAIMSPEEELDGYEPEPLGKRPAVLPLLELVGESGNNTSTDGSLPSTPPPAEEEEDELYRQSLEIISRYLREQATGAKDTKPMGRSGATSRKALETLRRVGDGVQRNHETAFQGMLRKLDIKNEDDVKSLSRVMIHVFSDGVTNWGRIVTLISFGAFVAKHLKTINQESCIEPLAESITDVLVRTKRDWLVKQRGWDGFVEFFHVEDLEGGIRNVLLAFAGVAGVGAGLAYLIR

With `O=[N+]([O-])c1ccc(NC(S)=NCCc2ccc(Cl)cc2)cc1` as the compound, how does the EC50 [1] read?
The EC50 was 2.92 µM (active).

And the EC50 (Streptokinase A)?
Its EC50 is 18.9 µM (active).

What about the IC50 [2] of the same compound?
The IC50 was 1.82 µM (not active).

What about the EC50 (Streptococcus) of the same compound?
Its EC50 is 33.2 µM (active).

What about the “Absolute IC50 (XBP1)” value (X-box-binding protein 1) of the same compound?
The value was 10 µM.

What about the AC50 [3] of the same compound?
Its AC50 is 4.1 µM (active).

And the AC50 (INS1)?
The AC50 was 7.38 µM (active).

Which results are given for `Cn1c(=O)c(C(=O)NC2CCCCCCC2)c(O)c2ccccc21`?
EC50 [4]: 69.1 µM (not active); EC50 [5]: > 79.4 µM (not active); EC50 [6]: 15.6 µM (active); EC50 [7]: 22.8 µM (active); EC50 [8]: > 79.4 µM (not active); EC50 (H4): > 120 µM (not active)

Which results are given for `O=C(NCc1ccco1)c1ccc(Cl)nc1`?
IC50 [9]: 26.5 µM (active); IC50 [10]: > 50 µM (inactive)

Which results are given for `CN1CCN(NS(=O)(=O)c2cccs2)CC1`?
IC50 [9]: 51.3 µM (active); IC50 [10]: > 50 µM (inactive)

Which EC50 [4] does the source give for `O=c1c2ccccc2nc(-c2ccccc2)n1CCCN1CCOCC1` here?
Its EC50 is > 79.4 µM (not active).

And the EC50 [5]?
Its EC50 is > 79.4 µM (not active).

What about the EC50 [8] of the same compound?
Its EC50 is > 79.4 µM (not active).

What does the source list for `Cc1ccc(C(=O)Nc2ccc(N3CCCC3)cc2)cc1`?
EC50 [4]: > 79.4 µM (not active); EC50 [5]: > 79.4 µM (not active); EC50 [8]: > 79.4 µM (not active); IC50 [11]: 17.9 µM (not active)

With `C=CCn1c(Cc2cccs2)nnc1SCC(=O)c1ccc(F)cc1` as the compound, how does the EC50 [4] read?
The EC50 was > 79.4 µM (not active).

What about the EC50 [5] of the same compound?
Its EC50 is > 79.4 µM (not active).

What about the EC50 [8] of the same compound?
Its EC50 is > 79.4 µM (not active).

Which results are given for `Cn1cccc1C(=O)NC(=O)COC(=O)c1ccc(S(C)(=O)=O)c([N+](=O)[O-])c1`?
AC50 [12]: 9.23 µM (active); AC50 [13]: 15.1 µM (active); AC50 [14]: 26 µM (active); AC50 [15]: 13.6 µM (active)

With `NC(=O)c1ccsc1NC(=O)CSc1nnc(C2CC2)n1Cc1ccccc1` as the compound, how does the IC50 (Prothrombin) read?
Its IC50 is > 50 µM (not active).

Which IC50 (Prothrombin) does the source give for `O=C(CSc1nc2nncc-2c(O)[nH]1)N1CCCCC1` here?
Its IC50 is > 50 µM (not active).

Which EC50 [4] does the source give for `CCN(CC)c1ccc(/C=N/c2cc(C)ccc2C)c(O)c1` here?
The EC50 was > 79.4 µM (not active).

And the EC50 [5]?
The EC50 was > 79.4 µM (not active).

What about the EC50 [8] of the same compound?
Its EC50 is > 79.4 µM (not active).

What does the source list for `Cc1ccc(C2C=C(c3ccccc3)Nc3nc(N4C(=O)CCC4=O)nn32)cc1` (stereo unspecified)?
IC50 (Prothrombin): 10.9 µM (active); EC50 [16]: > 53 µM (inactive)

For `COc1cccc(CNc2ncnc3cc(Cl)ccc23)c1`, which AC50 [13] is on record?
Its AC50 is 3.73 µM (active).

What about the AC50 [14] of the same compound?
The AC50 was > 70 µM (inactive).

What about the AC50 [15] of the same compound?
Its AC50 is 5.85 µM (active).
